Values quoted from earlier work, collected in patent US9857359B2, “Methods for determining drug efficacy using cereblon-associated proteins” (CELGENE CORPORATION, priority 2012, dated 2018).

Biological target: CRBN (Homo sapiens, UniProt Q96SW2)
Conditions: in vitro; Ito et al., Science 2010; cited from earlier work

Sequence of CRBN (Q96SW2 whole entry): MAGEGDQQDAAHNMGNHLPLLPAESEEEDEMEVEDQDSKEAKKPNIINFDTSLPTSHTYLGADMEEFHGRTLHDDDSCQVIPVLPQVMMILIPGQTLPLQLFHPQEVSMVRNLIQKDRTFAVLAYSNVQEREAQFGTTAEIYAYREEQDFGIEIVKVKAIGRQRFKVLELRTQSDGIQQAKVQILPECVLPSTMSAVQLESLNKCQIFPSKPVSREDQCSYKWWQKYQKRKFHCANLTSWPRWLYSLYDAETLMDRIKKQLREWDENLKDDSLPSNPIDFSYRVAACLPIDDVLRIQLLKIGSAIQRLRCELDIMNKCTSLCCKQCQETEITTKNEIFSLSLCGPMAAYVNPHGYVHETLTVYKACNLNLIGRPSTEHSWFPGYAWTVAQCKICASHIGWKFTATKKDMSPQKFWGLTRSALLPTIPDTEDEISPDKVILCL
Sequence of CRBN (Q16531 whole entry partner): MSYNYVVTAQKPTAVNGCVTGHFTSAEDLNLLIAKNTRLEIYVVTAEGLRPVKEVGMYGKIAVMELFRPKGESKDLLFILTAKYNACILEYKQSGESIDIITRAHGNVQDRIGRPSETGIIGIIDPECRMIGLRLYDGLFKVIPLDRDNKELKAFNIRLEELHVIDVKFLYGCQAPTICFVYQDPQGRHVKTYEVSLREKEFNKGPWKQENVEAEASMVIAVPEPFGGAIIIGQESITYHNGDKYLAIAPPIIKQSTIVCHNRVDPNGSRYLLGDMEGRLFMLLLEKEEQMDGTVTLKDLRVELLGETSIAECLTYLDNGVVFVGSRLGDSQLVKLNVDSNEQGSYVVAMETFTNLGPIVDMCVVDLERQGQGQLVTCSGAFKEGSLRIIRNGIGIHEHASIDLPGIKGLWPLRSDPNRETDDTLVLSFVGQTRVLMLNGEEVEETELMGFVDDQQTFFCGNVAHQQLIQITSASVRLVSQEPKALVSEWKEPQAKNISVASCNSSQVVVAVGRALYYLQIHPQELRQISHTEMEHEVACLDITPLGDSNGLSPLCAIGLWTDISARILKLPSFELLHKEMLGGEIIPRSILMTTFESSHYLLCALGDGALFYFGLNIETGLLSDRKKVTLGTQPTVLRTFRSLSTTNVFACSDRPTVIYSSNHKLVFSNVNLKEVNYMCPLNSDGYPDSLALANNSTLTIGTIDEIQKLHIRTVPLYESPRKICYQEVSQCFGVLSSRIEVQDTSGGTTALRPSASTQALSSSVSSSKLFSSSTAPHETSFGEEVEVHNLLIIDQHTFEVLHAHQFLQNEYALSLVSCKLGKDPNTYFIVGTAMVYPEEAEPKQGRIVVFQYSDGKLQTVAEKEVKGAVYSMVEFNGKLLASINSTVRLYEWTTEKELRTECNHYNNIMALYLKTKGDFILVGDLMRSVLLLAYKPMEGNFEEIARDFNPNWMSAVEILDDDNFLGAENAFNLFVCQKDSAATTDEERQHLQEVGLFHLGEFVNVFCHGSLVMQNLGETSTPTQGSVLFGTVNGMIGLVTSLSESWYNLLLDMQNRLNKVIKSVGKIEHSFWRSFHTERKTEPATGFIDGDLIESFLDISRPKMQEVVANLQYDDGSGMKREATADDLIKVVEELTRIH
Sequence of CRBN (Q13619 whole entry partner): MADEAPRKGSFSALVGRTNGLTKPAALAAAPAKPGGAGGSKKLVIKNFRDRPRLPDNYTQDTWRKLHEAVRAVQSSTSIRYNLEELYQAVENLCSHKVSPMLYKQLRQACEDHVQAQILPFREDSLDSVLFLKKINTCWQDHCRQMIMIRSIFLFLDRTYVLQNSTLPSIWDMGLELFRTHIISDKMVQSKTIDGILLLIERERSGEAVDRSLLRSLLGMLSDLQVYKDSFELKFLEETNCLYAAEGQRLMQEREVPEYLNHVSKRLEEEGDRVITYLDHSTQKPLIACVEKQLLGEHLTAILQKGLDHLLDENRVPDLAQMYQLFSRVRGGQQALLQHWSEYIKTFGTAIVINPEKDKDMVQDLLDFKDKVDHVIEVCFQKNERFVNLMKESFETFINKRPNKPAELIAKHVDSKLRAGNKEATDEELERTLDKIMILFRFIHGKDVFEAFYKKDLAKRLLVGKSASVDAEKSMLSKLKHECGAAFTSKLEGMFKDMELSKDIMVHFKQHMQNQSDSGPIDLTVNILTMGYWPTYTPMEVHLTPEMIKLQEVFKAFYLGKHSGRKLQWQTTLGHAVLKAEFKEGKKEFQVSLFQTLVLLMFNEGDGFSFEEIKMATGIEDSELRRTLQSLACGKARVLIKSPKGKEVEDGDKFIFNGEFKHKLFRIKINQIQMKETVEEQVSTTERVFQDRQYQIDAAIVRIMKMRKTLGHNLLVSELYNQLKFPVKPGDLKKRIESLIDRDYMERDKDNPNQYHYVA
Sequence of CRBN (P62877 whole entry partner): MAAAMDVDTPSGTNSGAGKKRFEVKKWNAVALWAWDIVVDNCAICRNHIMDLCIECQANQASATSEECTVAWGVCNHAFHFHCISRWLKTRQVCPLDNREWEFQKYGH

Q: With `O=C1CCC(N2C(=O)c3ccccc3C2=O)C(=O)N1` (stereo not shown) [thalidomide] as the compound, how does the “Auto-ubiquitination of CRBN” value read?
A: The value was “inhibit auto-ubiquitination of CRBN in vitro”.
